Converted amounts (≈) assume the structure as drawn. Where two headings read alike, the source gives them in different places.
What was measured:
[1] = tested on: E. coli GC 2203; assay: MIC, broth microdilution; conditions: Escherichia coli
[2] = tested on: E. coli GC 2234; assay: MIC, broth microdilution; conditions: Escherichia coli
[3] = tested on: E. coli GC 4559; assay: MIC, broth microdilution; conditions: Escherichia coli
[4] = tested on: E. coli GC 2232; assay: MIC, broth microdilution; conditions: Escherichia coli
[5] = tested on: E. faecalis GC 2267; assay: MIC, broth microdilution; conditions: Enterococcus faecalis
[6] = tested on: S. aureus GC 4536; assay: MIC, broth microdilution; conditions: Staphylococcus aureus
[7] = tested on: S. aureus GC 2216; assay: MIC, broth microdilution; conditions: Staphylococcus aureus
[8] = tested on: S. aureus GC 6466; assay: MIC, broth microdilution; conditions: Staphylococcus aureus
[9] = tested on: S. aureus GC 6467; assay: MIC, broth microdilution; conditions: Staphylococcus aureus
[10] = tested on: S. aureus GC 1131; assay: MIC, broth microdilution; conditions: Staphylococcus aureus
[11] = tested on: E. faecalis GC 2242; assay: MIC, broth microdilution; conditions: Enterococcus faecalis
[12] = tested on: P. aeruginosa GC 2214; assay: MIC, broth microdilution; conditions: Pseudomonas aeruginosa
[13] = tested on: E. coli GC 6465; assay: MIC, broth microdilution; conditions: Escherichia coli
Method: (§1) Antimicrobial susceptibility testing. The in vitro activities of the antibiotics are determined by the broth microdilution method as recommended by the National Committee for Clinical Laboratory Standards (NCCLS) (1). Mueller-Hinton II broth (MHBII)(BBL Cockeysville, Md.) is the medium employed in the testing procedures. Microtiter plates containing serial dilutions of each antimicrobial agent are inoculated with each organism to yield the appropriate density (10^5 CFU/ml) in a 100 μl final volume. The plates are incubated for 18-22 hours at 35° C. in ambient air.
Representative compounds were first incubated in mouse serum for an hour prior to the in vitro testing against a panel of selected gram-positive and gram-negative bacteria strains. All compounds were also pre-incubated in water for an hour prior to testing as control.

[14] = tested on: S. pneumoniae+ GC 4465; assay: MIC, broth microdilution; conditions: Streptococcus pneumoniae
[15] = tested on: S. epidermidis GC 4935; assay: MIC, broth microdilution; conditions: Staphylococcus epidermidis
[16] = tested on: E. coli GC 4560; assay: MIC, broth microdilution; conditions: Escherichia coli
[17] = tested on: E. coli GC 2272; assay: MIC, broth microdilution; conditions: Escherichia coli
[18] = tested on: S. pneumoniae* GC 4465; assay: MIC, broth microdilution; conditions: Streptococcus pneumoniae
Method: as §1
Representative compounds were first incubated in mouse serum for an hour prior to the in vitro testing against a panel of selected gram-positive and gram-negative bacteria strains. All compounds were also pre-incubated in water for an hour prior to testing as control. Representative compounds of Formula I were incubated in human serum prior to MIC determination.

[19] = tested on: E. coli GC 2231; assay: MIC, broth microdilution; conditions: Escherichia coli
[20] = tested on: Staph. aureus Smith; assay: In vivo activity (oral, iv; ED50) against Staph. aureus Smith in mice
Method: Representative examples of compounds of Formula I were tested for the oral efficacy using S. aureus Smith in mice.

[21] = read-out: MINIMAL INHIBITORY CONCENTRATION MIC, pre-incubated in Mouse Serum
[22] = read-out: MINIMAL INHIBITORY CONCENTRATION MIC, pre-incubated in Water

CCCN(CC(=O)Nc1cc(N(C)C)c2c(c1O)C(=O)C1=C(O)[C@]3(O)C(=O)C(C(N)=O)=C(O)[C@@H](N(C)C)[C@@H]3C[C@@H]1C2)C(=O)OCOC(=O)c1cccs1 [Example 25, ({[(2-{[(5aR,6aS,7S,10aS)-9-(aminocarbonyl)-4,7-bis(dimethylamino)-1,8,10a,11-tetrahydroxy-10,12-dioxo-5,5a,6,6a,7,10,10a,12-octahydrotetracen-2-yl]amino}-2-oxoethyl)(propyl)amino]carbonyl}oxy)methyl thiophene-2-carboxylate] was tested. Which MIC ([1]; GC2203, read-out: MINIMAL INHIBITORY CONCENTRATION MIC, pre-incubated in Mouse Serum) did it give?
The MIC was 1 µg/mL (≈ 1.32 µM).

What about the MIC ([1]; GC2203, read-out: MINIMAL INHIBITORY CONCENTRATION MIC, pre-incubated in Water) of the same compound?
The MIC was > 64 µg/mL.

What about the MIC ([2]; GC2234, read-out: MINIMAL INHIBITORY CONCENTRATION MIC, pre-incubated in Mouse Serum) of the same compound?
Its MIC is 1 µg/mL (≈ 1.32 µM).

And the MIC ([2]; GC2234, read-out: MINIMAL INHIBITORY CONCENTRATION MIC, pre-incubated in Water)?
The MIC was > 64 µg/mL.

And the MIC ([3]; GC4559, read-out: MINIMAL INHIBITORY CONCENTRATION MIC, pre-incubated in Mouse Serum)?
Its MIC is 2 µg/mL (≈ 2.65 µM).

What about the MIC ([3]; GC4559, read-out: MINIMAL INHIBITORY CONCENTRATION MIC, pre-incubated in Water) of the same compound?
The MIC was > 64 µg/mL.

And the MIC ([4]; GC2232, read-out: MINIMAL INHIBITORY CONCENTRATION MIC, pre-incubated in Mouse Serum)?
Its MIC is 1 µg/mL (≈ 1.32 µM).

What about the MIC ([4]; GC2232, read-out: MINIMAL INHIBITORY CONCENTRATION MIC, pre-incubated in Water) of the same compound?
The MIC was > 64 µg/mL.

What about the MIC ([5]; GC2267, read-out: MINIMAL INHIBITORY CONCENTRATION MIC, pre-incubated in Mouse Serum) of the same compound?
The MIC was 2 µg/mL (≈ 2.65 µM).

What about the MIC ([5]; GC2267, read-out: MINIMAL INHIBITORY CONCENTRATION MIC, pre-incubated in Water) of the same compound?
Its MIC is 4 µg/mL (≈ 5.29 µM).

What about the MIC ([6]; GC4536, read-out: MINIMAL INHIBITORY CONCENTRATION MIC, pre-incubated in Mouse Serum) of the same compound?
Its MIC is 0.5 µg/mL (≈ 0.662 µM).

What about the MIC ([6]; GC4536, read-out: MINIMAL INHIBITORY CONCENTRATION MIC, pre-incubated in Water) of the same compound?
Its MIC is 0.5 µg/mL (≈ 0.662 µM).

What about the MIC ([7]; GC2216, read-out: MINIMAL INHIBITORY CONCENTRATION MIC, pre-incubated in Mouse Serum) of the same compound?
The MIC was 0.5 µg/mL (≈ 0.662 µM).

And the MIC ([7]; GC2216, read-out: MINIMAL INHIBITORY CONCENTRATION MIC, pre-incubated in Water)?
Its MIC is 1 µg/mL (≈ 1.32 µM).

And the MIC ([8]; GC6466, read-out: MINIMAL INHIBITORY CONCENTRATION MIC, pre-incubated in Mouse Serum)?
Its MIC is 0.25 µg/mL (≈ 0.331 µM).

What about the MIC ([8]; GC6466, read-out: MINIMAL INHIBITORY CONCENTRATION MIC, pre-incubated in Water) of the same compound?
Its MIC is 0.25 µg/mL (≈ 0.331 µM).

And the MIC ([9]; GC6467, read-out: MINIMAL INHIBITORY CONCENTRATION MIC, pre-incubated in Mouse Serum)?
The MIC was 2 µg/mL (≈ 2.65 µM).

What about the MIC ([9]; GC6467, read-out: MINIMAL INHIBITORY CONCENTRATION MIC, pre-incubated in Water) of the same compound?
The MIC was 2 µg/mL (≈ 2.65 µM).

And the MIC ([10]; GC1131, read-out: MINIMAL INHIBITORY CONCENTRATION MIC, pre-incubated in Mouse Serum)?
The MIC was 0.5 µg/mL (≈ 0.662 µM).

What about the MIC ([10]; GC1131, read-out: MINIMAL INHIBITORY CONCENTRATION MIC, pre-incubated in Water) of the same compound?
Its MIC is 0.5 µg/mL (≈ 0.662 µM).

What about the MIC ([11]; GC2242, read-out: MINIMAL INHIBITORY CONCENTRATION MIC, pre-incubated in Mouse Serum) of the same compound?
The MIC was 2 µg/mL (≈ 2.65 µM).

What about the MIC ([11]; GC2242, read-out: MINIMAL INHIBITORY CONCENTRATION MIC, pre-incubated in Water) of the same compound?
Its MIC is 2 µg/mL (≈ 2.65 µM).

And the MIC ([12]; GC2214, read-out: MINIMAL INHIBITORY CONCENTRATION MIC, pre-incubated in Mouse Serum)?
Its MIC is 32 µg/mL (≈ 42.3 µM).

What about the MIC ([12]; GC2214, read-out: MINIMAL INHIBITORY CONCENTRATION MIC, pre-incubated in Water) of the same compound?
Its MIC is > 64 µg/mL.

And the MIC ([13]; GC6465, read-out: MINIMAL INHIBITORY CONCENTRATION MIC, pre-incubated in Mouse Serum)?
The MIC was 8 µg/mL (≈ 10.6 µM).

What about the MIC ([13]; GC6465, read-out: MINIMAL INHIBITORY CONCENTRATION MIC, pre-incubated in Water) of the same compound?
The MIC was > 64 µg/mL.

And the MIC [14, 21]?
The MIC was 4 µg/mL (≈ 5.29 µM).

What about the MIC [14, 22] of the same compound?
Its MIC is 4 µg/mL (≈ 5.29 µM).

What about the MIC ([15]; GC4935, read-out: MINIMAL INHIBITORY CONCENTRATION MIC, pre-incubated in Mouse Serum) of the same compound?
The MIC was 1 µg/mL (≈ 1.32 µM).

What about the MIC ([15]; GC4935, read-out: MINIMAL INHIBITORY CONCENTRATION MIC, pre-incubated in Water) of the same compound?
Its MIC is 2 µg/mL (≈ 2.65 µM).

And the MIC ([16]; GC4560, read-out: MINIMAL INHIBITORY CONCENTRATION MIC, pre-incubated in Mouse Serum)?
The MIC was 0.5 µg/mL (≈ 0.662 µM).

And the MIC ([16]; GC4560, read-out: MINIMAL INHIBITORY CONCENTRATION MIC, pre-incubated in Water)?
Its MIC is 2 µg/mL (≈ 2.65 µM).

And the MIC ([17]; GC2272, read-out: MINIMAL INHIBITORY CONCENTRATION MIC, pre-incubated in Mouse Serum)?
Its MIC is 2 µg/mL (≈ 2.65 µM).

And the MIC ([17]; GC2272, read-out: MINIMAL INHIBITORY CONCENTRATION MIC, pre-incubated in Water)?
The MIC was 64 µg/mL (≈ 84.7 µM).

And the MIC [18, 21]?
The MIC was 0.12 µg/mL (≈ 0.159 µM).

What about the MIC [18, 22] of the same compound?
Its MIC is 0.25 µg/mL (≈ 0.331 µM).

What about the MIC ([19]; GC2231, read-out: MINIMAL INHIBITORY CONCENTRATION MIC, pre-incubated in Mouse Serum) of the same compound?
Its MIC is 2 µg/mL (≈ 2.65 µM).

What about the MIC ([19]; GC2231, read-out: MINIMAL INHIBITORY CONCENTRATION MIC, pre-incubated in Water) of the same compound?
The MIC was > 64 µg/mL.

What about the ED50 ([20]; Staphylococcus aureus, in Mus musculus, po, read-out: ED50 Staph Smith SOD) of the same compound?
The ED50 was 15.7 mg/kg.

And the ED50 ([20]; iv, read-out: ED50 Staph Smith SIV)?
The ED50 was 0.56 mg/kg.

Source: US20070049564A1 (Wyeth, priority 2005, published 2007)
